Test results as given in US8546323B2, “Thrombospondin-1 derived peptides and treatment methods” (priority 2005, dated 2013).
“Also recorded” adds a separate entry of the source.

Legend:
[1] = test system: binding of TSP-1 to macrophages; assay: cell adhesion assay: macrophage adhesion to TSP-1-coated wells, competition by peptides; format: cell-based, murine; conditions: wells pre-plated with TSP-1 (40 microg./ml); cells mixed with peptide (0.01M) for 30 minutes
Method: For the peptide experiment, the cells were mixed in suspension with respective peptide (0.01M) for 30 minutes prior to being introduced to TSP-1 wells.
TSP-1 has multiple potential binding sites for binding macrophages including CD44, IAP, and CD36 (FIG. 1). However there has been no previously established β2-integrin binding motif described in TSP-1. A prior-study using phage sequence assays has reported that the peptide motif D(D/E)(G/L)W (SEQ ID NO: 7) competes with pro-MMP-9 binding to β2-integrin [40]. Through a sequence search of the complete TSP-1 peptide sequence we have determined that TSP-1 has two such putative β2 integrin binding sites: one in TSR-1-(DDGW (SEQ ID NO: 3), a perfect consensus) and another in TSR-2 (DGGW SEQ ID NO: 3), a close consensus with substitution in position 2) as shown in FIG. 2. We have used cell adhesion assay to assess binding of TSP-1 to macrophages (FIG. 6). Using this assay we have been able to show the impact of the D-Xaa-G-W (SEQ ID NO: 5) motif in TSP-1 adhesion to macrophages.

[2] = test system: TGF-β1; conditions: TSP-1 knockout mouse; cited from earlier work
[3] = target: T1, TGF-β1 (Mus musculus, UniProt P04202); assay: synthetic peptide in tissue culture: TGF-β1 activation; format: cell-based
T1 construct: endogenous in cells; host or cells: Tissue culture
Source text: (§1) As such we have identified the two active sites in TSP-1 important for both (1) decreasing MMP-9 activity (2) and activating TGF-β1. Using this knowledge, many peptides having plaque stabilizing properties can be designed and synthesized. We designed and synthesized a representative synthetic sequence combining these two active sites: KRFKQDDGWSPWSEW (SEQ ID NO: 10).

[4] = test system: MMP-9; assay: synthetic peptide in tissue culture: inhibition of MMP-9 activation; format: cell-based
Source text: as §1

[5] = test system: atherosclerotic plaque; assay: peptide infusion (alzet pump) in TSP−/−ApoE−/− mice, atherosclerotic lesion composition; format: in vivo, mouse
Source text: Generally, “stabilized plaque” is evidenced by limited inflammation at the site of the lesion and/or significant fibrosis within the plaque. These features may be observed by a comparison a TSP-1 deficient control system such as the TSP−/− mice described above. Generally, stabilized plaque may be identified by a comparison of fibrosis and inflammation in treated and untreated animals. The balance between fibrosis and inflammation within the plaque has been a well accepted surrogate marker for propensity of plaque to rupture in multiple different animal models.

[6] = test system: atherosclerotic plaque; assay: peptide infusion in apoE−/− mice, atherosclerotic plaque; format: in vivo, mouse
[7] = test system: MMP-9; assay: transient transfection of RAW macrophage cells, active MMP-9/total MMP-9 ELISA; format: cell-based, mouse; conditions: RAW cells transiently transfected with TSP-1 or TSP-1 mutant; for mutants: fate of the TSP-1 effect
Source text: (§2) (A) There are two putative β2 integrin binding domain in TSR-1 and TSR-2. Note that these two binding domains are adjacent (and overlap by one amino acid) the two binding domains for TGF-β1. We have mutated the two DxGW motifs as shown in the box. […] This effect is abolished by TSP mutants: DM and less so by Mut1. […] This affect is abolished with both TSP-1 mutants Mut1 and Mut2. In summary the DxGW motif in TSR-1 and TSR-2 appear to mediate the effects on of TSP-1 on TGF-β1 activation and MMP-9 inhibition in this cell assay system.
We have shown TSP-1 binding, to macrophages through the same motif and we postulate one potential mechanism for TSP-1 inhibition, of MMP-9 activity may involve displacement of pro-MMP-9 from cell surface (FIG. 7) by competition for binding. To test this hypothesis we generated various mutants of TSP-1 involving either or both potential β2-intergin binding motif in TSP-1 (FIG. 2). […] This effect was reversed by mutation of the TSR-1 motif but less so with mutation of the TSR-2 motif.

[8] = test system: TGF-β1; assay: transient transfection of RAW macrophage cells, luciferase induction via TGF-β1 promoter responsive element; format: cell-based, mouse; conditions: RAW cells transiently transfected with TSP-1 or TSP-1 mutant; cell lysate luciferase; for mutants: fate of the TSP-1 effect
Source text: as §2
Furthermore, using our mutants we have observed that WSPW (SEQ ID NO: 9) motif in TSR-2 is primarily responsible for TGF-β1 activation by TSP-1.

[9] = 8-25 μg per day for 5 weeks, versus untreated TSP−/− mice

T1 sequence (P04202 30-278 limits assumed): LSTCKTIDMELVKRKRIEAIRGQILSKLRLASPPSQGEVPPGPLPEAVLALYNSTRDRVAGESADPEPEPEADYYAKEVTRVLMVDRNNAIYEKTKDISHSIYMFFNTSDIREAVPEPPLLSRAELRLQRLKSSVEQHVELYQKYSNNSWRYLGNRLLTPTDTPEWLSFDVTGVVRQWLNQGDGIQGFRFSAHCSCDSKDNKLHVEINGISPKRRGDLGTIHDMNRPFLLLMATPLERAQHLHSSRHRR

ADGW
interference with macrophage adhesion to TSP-1 [1]: partial interference

DDGA (DGGW)
interference with macrophage adhesion to TSP-1 [1]: lack of interference

DDGW
interference with macrophage adhesion to TSP-1 [1]: sufficient to inhibit cell adhesion to TSP-1

KRFK
rescue of TSP-1 knockout phenotype (localized alveolar inflammation and chronic pneumonia) [2]: rescues this phenotype

KRFKQDDGWSPWSEW
ability to activate TGF-β1 [3]: activate TGF-β1 | ability to inhibit activation of MMP-9 [4]: inhibit activation of MMP-9 | inflammation (macrophages) in the intimal lesion [5, 9]: decreased inflammation (macrophages) in the intimal lesion | lipid deposition within the intimal lesions [5, 9]: decreased lipid deposition within the intimal lesions | matrix (collagen and elastin) deposition within the lesion [5, 9]: increased matrix (as measured by collagen and elastin) deposition within the lesion | rescue of the phenotype of TSP−/−ApoE−/− mice (decrease macrophages, increase matrix within the lesion) ([5]; alzet infusion pump, 8-25 μg per day for 5 weeks): sufficient to rescue the phenotype | plaque stabilizing activity ([5]; mouse model of atherosclerosis): active in stabilizing plaque | plaque stabilization in presence of endogenous TSP-1 [6]: beneficial effect

TSP-1: matricellular protein thrombospondin-1, a trimer with a chain molecular mass of 150 kda
MMP-9 activity (active MMP-9/total MMP-9), conversion of pro-MMP-9 to the active form [7]: decreases MMP-9 activity; also recorded: decreased conversion of pro-MPP-9 to the active form | TGF-β1 activity [8]: increases TGF-β1 activity; also recorded: activates TGF-β1
